# Structures can show the parent of a compound that is named as a salt.
# Experiment: Aerosol analysis at 60 LPM, Turbospin (Example 11)
# Method: The aerosol performance of a SEDS™ processed sample of bromocriptine mesylate was assessed in a unit-dose passive inhaler device (Turbospin PH & T (Italy)), at a peak inspiratory flow rate (PFIR) of 28.3 LPM and 60 LPM.
smiles,measurement,value
"CC(C)C[C@H]1C(=O)N2CCC[C@H]2[C@]2(O)O[C@](NC(=O)[C@@H]3C=C4c5cccc6[nH]c(Br)c(c56)C[C@H]4N(C)C3)(C(C)C)C(=O)N12 [SEDS bromocriptine, bromocriptine mesylate]",aerodynamic diameter of aerosol particles,4.2 μm

# — patent US10945972B2, “Particulate materials” (Nektar Therapeutics, priority 2002, dated 2021)
